Data on five molecules can be found in patent US4711902A, “Medicament formulation” (Bayer Aktiengesellschaft, priority 1983, dated 1987).

Read-outs that look alike come from different tables or passages of the source.

The conditions of series [1]: lipid content 20% by weight, room temperature.
From the text: Ester mixture A: a glycerol triesters of caprylic acid (70%) and capric acid (30%)
Ester mixture D: 50% soy bean oil and 50% glycerol triesters of caprylic acid (70%) and capric acid (30%)
The conditions of series [2]: lipid content 20%, room temperature.
Setting [3] is: Ester mixture A (glycerol triesters of caprylic acid 70% and capric acid 30%).
The mark [4] stands for this setting: Ester mixture B (propylene glycol diesters of caprylic acid 75% and capric acid 25%).
Setting [5] is: Ester mixture C (75% glycerol triesters, 12.5% diesters, 12.5% monoesters of caprylic/capric acid).
Setting [6] is: Ester mixture D (50% soy bean oil and 50% glycerol triesters of caprylic acid 70% and capric acid 30%).

For `COC(=O)C1=C(C)NC(C)=C(C(=O)OCC(C)C)C1c1ccccc1[N+](=O)[O-]` (stereo not shown) [Nisoldipine], the “Solubility of the medicament in the emulsion” value (from here on “Solubility of the medicament”) in series [1] (setting [3]) is reported as 0.14 % (W/W); in series [1] (setting [4]), 0.18 % (W/W); in series [1] (setting [5]) it was 0.20 % (W/W); in series [1] (setting [6]), 0.08 % (W/W); in series [1] (Soy bean oil), 0.04 % (W/W).

For `COCCOC(=O)C1=C(C)NC(C)=C(C(=O)OC(C)C)C1c1cccc([N+](=O)[O-])c1` (stereo not shown) [Nimodipine], the “Solubility of nimodipine in soy bean oil emulsion” value in series [2] (benzyl alcohol 0% W/W) turned out to be 0.04%; in series [2] (benzyl alcohol 2% W/W) it was 0.08%; in series [2] (benzyl alcohol 4% W/W) it was 0.16%; in series [2] (benzyl alcohol 5% W/W) it was 0.18%. The “Solubility of the medicament” value in series [1] (setting [3]) was 0.16 % (W/W); in series [1] (setting [4]), 0.26 % (W/W); in series [1] (setting [5]), 0.50 % (W/W); in series [1] (setting [6]), 0.08 % (W/W); in series [1] (Soy bean oil), 0.04 % (W/W).

`CC(c1ccc(Cl)c(Cl)c1)N1N=C(N)CC1=O` (stereo not shown) [Muzolimine]: the “Solubility of the medicament” value in series [1] (setting [3]) is on record as 0.06 % (W/W); in series [1] (setting [4]), 0.06 % (W/W); in series [1] (setting [5]) it was 0.32 % (W/W); in series [1] (setting [6]), 0.02 % (W/W); in series [1] (Soy bean oil), 0.01 % (W/W).

`CCCOC(=O)Cc1ccc(OCC(=O)N(CC)CC)c(OC)c1` [Propanidide]: in series [1] (Soy bean oil), the “Solubility of the medicament” value was 2.80 % (W/W).

Take `CCOC(=O)C1=C(C)NC(C)=C(C(=O)OC)C1c1cccc([N+](=O)[O-])c1` (stereo not shown) [Nitrendipine]: the “Solubility of the medicament” value in series [1] (setting [3]) was 0.08 % (W/W); in series [1] (setting [4]) it was 0.12 % (W/W); in series [1] (setting [5]), 0.14 % (W/W); in series [1] (setting [6]) it was 0.05 % (W/W); in series [1] (Soy bean oil), 0.03 % (W/W).
